Source: patent US20070255356A1, “PHOTODI[…] DEVICES AND METHODS” (Ondine International, Ltd., priority 2006, published 2007)

Assays:
otitis externa [1] = experiment: photodisinfection of otitis externa treatment site (Examples V to VII); type: in vivo
Method: A photosensitizing composition comprising of methylene blue at a concentration of about 0.1 wt % is applied to the otitis externa treatment site. Light at a wavelength range from about 650 nm to about 680 nm is applied to the photosensitizing composition located within the otitis externa treatment site for a period from about 6 minutes to about 10 minutes using a laser with power at about 80 mW. The otitis externa was ameliorated.
A photosensitizing composition comprising of methylene blue at a concentration range of from about 0.001 wt % to about 0.1 wt % is applied to the otitis externa treatment site. Light at a wavelength range from about 650 nm to about 680 nm is applied to the photosensitizing composition located within the treatment site for a period from about 1 minute to about 20 minutes using a laser with power at a range from about 50 mW to about 300 mW. The otitis externa was ameliorated.
A photosensitizing composition comprising of toluidine blue at a concentration range of from about 0.001% wt % to about 0.1 wt % is applied to the otitis externa treatment site. Light at a wavelength range from about 620 nm to about 650 nm is applied to the photosensitizing composition located within the otitis externa treatment site for a period from about 1 minute to about 20 minutes using a laser with power at a range from about 50 mW to about 300 mW. The otitis externa was ameliorated.
For Examples V to VII, it was shown that there is a general inverse relationship between (1) the photosensitizer concentration and (2) the photodisinfection treatment time and/or the amount of power required for the light source. For example, higher concentration of photosensitizer requires less treatment time and/or lower light source power. Conversely, lower concentration of photosensitizer requires longer treatment time and/or higher light source power. Also, less treatment time requires higher concentration of photosensitizer and/or higher light source power.

MRSA [2] = experiment: photodisinfection of MRSA biofilms in vitro (Periowave laser); type: cell-based, Methicillin-resistant Staphylococcus aureus
Excerpt: (§1) Photodisinfection treatments using methods contemplated by the present invention have been tested against MRSA, Escherichia coli (E. coli), and Enterococcus fecalis (E. fecalis) in vitro and reached high levels of disinfection in within seconds to one minute. Photosensitizing composition comprising of methylene blue at various concentrations ranging from about 0.005 wt % to 0.1 wt % was applied to biofilms of MRSA, E. coli and E. fecalis for about ten seconds. These biofilms were then illuminated by a laser light system at a wavelength of about 665 nm to about 675 nm for a period from about 0 seconds to about 60 seconds (e.g., accumulated energy level of about 0 J/cm^2 to about 9 J/cm^2). The laser light system used was the Periowave™ system which includes a low-intensity laser with power at about 240 mW and the optical probe described in PCT Patent Publication No. WO2006115761.

E. coli [3] = experiment: photodisinfection of E. coli biofilms in vitro (Periowave laser); type: cell-based, Escherichia coli
Excerpt: as §1

E. fecalis = experiment: photodisinfection of E. fecalis biofilms in vitro (Periowave laser); type: cell-based, Enterococcus fecalis; conditions: methylene blue and a low power laser
Excerpt: as §1

MRSA [4] = experiment: SEM evaluation of MRSA biofilms after photodisinfection; type: cell-based, Methicillin-resistant Staphylococcus aureus; conditions: about 0.1 wt % methylene blue, about 10 seconds contact, 665-675 nm, about 30 seconds
Method: (§2) Biofilms heavily colonized with one to four layers of MRSA organisms were contacted with a photosensitizing composition comprising methylene blue at a concentration of about 0.1 wt % for about 10 seconds and then illuminated at a wavelength of about 665 nm to about 675 nm for a period from about 30 seconds using the Periowave™ laser. Thereafter, these biofilms and the controlled MRSA biofilms (e.g., no photodisinfection treatment) were incubated overnight in 0.9 wt % saline and then fixed in 10 wt % Formalin for scanning electron microscope (SEM) evaluation.

E. coli [5] = experiment: SEM evaluation of E. coli biofilms after photodisinfection; type: cell-based, Escherichia coli; conditions: about 0.1 wt % methylene blue, about 10 seconds contact, 665-675 nm, about 30 seconds
Method: as §2, with “to three” for “to four”, “of Escherichia coli (E. coli)” for “of MRSA”, “controlled E. coli” for “controlled MRSA”, “incubated for three hours” for “incubated overnight”, “in 0.9%” for “in 0.9 wt %”, “in 10%” for “in 10 wt %”

otitis externa [6] = experiment: study on patients suffering otitis externa (photodisinfection, Periowave laser); type: in vivo, human; conditions: about 0.01 wt % methylene blue by cotton swab, 665-675 nm, about 3 to 5 minutes (3-5 one minute cycles); many patients
Method: A study was conducted on patients suffering otitis externa. During the study, a photosensitizing composition comprising of methylene blue at a concentration of about 0.01 wt % was applied using a cotton swab to the treatment site as shown in FIG. 37. Thereafter and referring to FIGS. 38-39, light at a wavelength range from about 665 nm to about 675 nm was applied to the photosensitizing composition located within the treatment site 64 for a period from about 3 minutes to about 5 minutes (3-5 repetitive one minute cycles) using the Periowave™ laser light system.

[7] = at least 0.02 wt % methylene blue, about ten seconds contact, about 665-675 nm laser about 240 mW for at least 15 seconds (at least 2.25 J/cm^2)
[8] = methylene blue and a low power laser

| SMILES | outcome of otitis externa (otitis externa [1]; Example VII: about 0.001 to 0.1 wt %, 620-650 nm, about 1 to 20 minutes, laser about 50 to 300 mW) | reduction of MRSA (MRSA [2]; [7]) | elimination of MRSA by photodisinfection (MRSA [2]; [8]) | reduction of E. coli (E. coli [3]; [7]) | elimination of E. coli by photodisinfection (E. coli [3]; [8]) | elimination of E. Fecalis by photodisinfection (E. fecalis) | reduction of MRSA in SEM photograph (FIG. 34 vs FIG. 33) (MRSA [4]) | reduction of E. coli in SEM photograph (FIG. 36 vs FIG. 35) (E. coli [5]) | outcome of otitis externa (otitis externa [6]) | outcome of otitis externa (otitis externa [1]; Example V: about 0.1 wt %, 650-680 nm, about 6 to 10 minutes, laser about 80 mW) | outcome of otitis externa (otitis externa [1]; Example VI: about 0.001 to 0.1 wt %, 650-680 nm, about 1 to 20 minutes, laser about 50 to 300 mW) |
| --- | --- | --- | --- | --- | --- | --- | --- | --- | --- | --- | --- |
| Cc1cc2nc3ccc(N(C)C)cc3[s+]c2cc1N.[Cl-] [toluidine blue] | ameliorated | – | – | – | – | – | – | – | – | – | – |
| CN(C)c1ccc2nc3ccc(=[N+](C)C)cc-3sc2c1 [methylene blue] | – | at least three | effectively eliminated | at least three | effectively eliminated | effectively eliminated | substantial reduction of MRSA | substantial reduction of E. coli | ameliorated | ameliorated | ameliorated |
